Data as given in patent US10597388B2, “Pyridazinone herbicides” (FMC CORPORATION, priority 2014, dated 2020).

What was measured:
Format in all cases: in vivo
[1] = system: ducksalad (Heteranthera limosa); assay: Test B flooded paddy test; settings: 250 g ai/ha, Flood; visual rating on scale of 0 to 100 where 0 is no effect and 100 is complete control; 13 to 15 d after treatment
Procedure, shortened: (§1)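 Plants at the 2-leaf stage were flooded to 3 cm above soil, and test compounds were applied directly into the paddy water, which was held at that depth throughout. After 13 to 15 d in a greenhouse, injury was rated visually against untreated controls on a 0–100 scale (0 no effect, 100 complete control).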

rice (Oryza sativa) = assay: Test B flooded paddy test; settings: 250 g ai/ha, Flood; visual rating on scale of 0 to 100 where 0 is no effect and 100 is complete control; 13 to 15 d after treatment
Procedure, shortened: as §1

[2] = system: barnyardgrass (Echinochloa crus-galli); assay: Test B flooded paddy test; settings: 250 g ai/ha, Flood; visual rating on scale of 0 to 100 where 0 is no effect and 100 is complete control; 13 to 15 d after treatment
Procedure, shortened: as §1

[3] = system: sedge, umbrella (small-flower umbrella sedge, Cyperus difformis); assay: Test B flooded paddy test; settings: 250 g ai/ha, Flood; visual rating on scale of 0 to 100 where 0 is no effect and 100 is complete control; 13 to 15 d after treatment
Procedure, shortened: as §1

[4] = system: blackgrass (Alopecurus myosuroides); assay: Test A greenhouse herbicide test, postemergence; settings: for Blackgrass plant response rating: 0 is no effect, 100 is complete control
Procedure, shortened: (§2)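 Greenhouse postemergence test: formulated chemicals sprayed on one- to two-leaf plants (2 to 10 cm), grown in loam soil blended with sand. Injury assessed visually about 10 d later against untreated controls, scored 0 (no effect) to 100 (complete control).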

[5] = system: galium (catchweed bedstraw, Galium aparine); assay: Test A greenhouse herbicide test, postemergence; settings: for Galium plant response rating: 0 is no effect, 100 is complete control
Procedure, shortened: as §2

[6] = system: oat, wild (wild oat, Avena fatua); assay: Test D controlled growth environment herbicide test, pre- and postemergence; settings: for Oat, Wild plant response rating / Plant response rating (scale of 0 to 100), Oat, Wild: 31 g ai/ha
Source text: Seeds of plant species selected from bluegrass (annual bluegrass, Poa annua), blackgrass (Alopecurus myosuroides), Canada thistle (Cirsium arvense), canarygrass (Phalaris minor), chickweed (common chickweed, Stellaria media), geranium, cutleaf (cutleaf geranium, Geranium dissectum), galium (catchweed bedstraw, Galium aparine), bromegrass, downy (downy bromegrass, Bromus tectorum), field poppy (Papaver rhoeas), field violet (Viola arvensis), foxtail, green (green foxtail, Setaria viridis), deadnettle (henbit deadnettle, Lamium amplexicaule), ryegrass, Italian (Italian ryegrass, Lolium multiflorum), kochia (Kochia scoparia), lambsquarters (Chenopodium album), oilseed rape (Brassica napus), pigweed (Amaranthus retroflexus), chamomile (scentless chamomile, Matricaria inodora), Russian thistle (Salsola kali), speedwell (bird's-eye speedwell, Veronica persica), barley, spring (spring barley, Hordeum vulgare), wheat, spring (spring wheat, Triticum aestivum), buckwheat, wild (wild buckwheat, Polygonum convolvulus), mustard, wild (wild mustard, Sinapis arvensis), oat, wild (wild oat, Avena fatua), radish, wild (wild radish, Raphanus raphanistrum), windgrass (Apera spica-venti), barley, winter (winter barley, Hordeum vulgare), and wheat, winter (winter wheat, Triticum aestivum) were planted into a silt loam soil and treated preemergence with test chemicals formulated in a non-phytotoxic solvent mixture which included a surfactant.
At the same time, these species were planted in pots containing Redi-Earth® planting medium (Scotts Company, 14111 Scottslawn Road, Marysville, Ohio 43041) comprising spaghnum peat moss, vermiculite, wetting agent and starter nutrients and treated with postemergence applications of the test chemicals formulated in the same manner. Plants ranged in height from 2 to 18 cm (1- to 4-leaf stage). Treated plants and controls were maintained in a controlled growth environment for 14 to 21 d after which time all species were compared to controls and visually evaluated. Plant response ratings, summarized in Table D, are based on a scale of 0 to 100 where 0 is no effect and 100 is complete control. A dash (-) response means no test result.

[7] = system: chickweed (common chickweed, Stellaria media); assay: Test C greenhouse herbicide test, postemergence
Procedure, shortened: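 Postemergence foliar treatment, 1- to 4-leaf stage (2–18 cm), peat/vermiculite medium; greenhouse 13–15 d; visual rating vs controls, 0 = no effect, 100 = complete control; dash = no result.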

[8] = 125 g ai/ha, visual rating after approx. 10 d, 0 to 100 scale (0 no effect, 100 complete control)
[9] = Postemergence, scale 0 to 100 (0 no effect, 100 complete control)
[10] = Postemergence, 125 g ai/ha, visual rating on scale 0 (no effect) to 100 (complete control), 14 to 21 d
[11] = Postemergence, 250 g ai/ha, scale 0 to 100 (0 no effect, 100 complete control)
[12] = Preemergence, 62 g ai/ha, scale 0 to 100 (0 no effect, 100 complete control)
[13] = Preemergence, 125 g ai/ha, scale 0 to 100 (0 no effect, 100 complete control)
[14] = Preemergence, 250 g ai/ha, scale 0 to 100 (0 no effect, 100 complete control)
[15] = postemergence, 62 g ai/ha, scale 0 to 100, 0 no effect, 100 complete control
[16] = Postemergence, 31 g ai/ha, 0 to 100 scale (0 no effect, 100 complete control)
[17] = Postemergence, 125 g ai/ha, scale 0 to 100, 0 is no effect, 100 is complete control
[18] = Postemergence, 250 g ai/ha, scale 0 to 100, 0 no effect, 100 complete control, 13 to 15 d
[19] = 125 g ai/ha, 0 to 100 scale where 0 is no effect and 100 is complete control
[20] = 125 g ai/ha, 0 to 100 scale, 0 no effect, 100 complete control
[21] = 500 g ai/ha, visual rating after approx. 10 d, 0 to 100 scale (0 no effect, 100 complete control)

Compound	Plant response rating, Ducksalad [1]	Plant response rating, Rice (rice (Oryza sativa))	Plant response rating, Barnyardgrass [2]	Plant response rating, Sedge, Umbrella [3]	Plant response rating, Blackgrass [4, 8]	Blackgrass plant response rating ([4]; 500 g ai/ha, 0 to 100 scale)	Plant response rating, Galium [5, 8]	Galium plant response rating ([5]; 500 g ai/ha, 0 to 100 scale)	Oat, Wild plant response rating [6, 9]	Plant response rating, Oat, Wild [6, 10]	Plant response rating, Oat, Wild [6, 11]	Plant response rating (scale of 0 to 100), Oat, Wild ([6]; Preemergence)	Plant response rating, Oat, Wild [6, 12]	Plant response rating, Oat, Wild [6, 13]	Plant response rating, Oat, Wild [6, 14]	Plant response rating, Oat, Wild [6, 15]	Chickweed plant response rating [7, 16]	Plant response rating, Chickweed [7, 17]	Plant response rating, Chickweed [7, 18]	Chickweed plant response rating [7, 15]	also measured
CC(=O)Oc1c(C)nn(C)c(=O)c1-c1c(C)sc2ccc(C)cc12 [Compound 25]	20	0	30	60	60	90	100	100	75	90	90	85	90	95	100	80	90	100	100	98	
CC(=O)Oc1c(C)nn(C)c(=O)c1-c1c(C)sc2c(C)cc(C)cc12 [Compound 27]	30	40	30	80	90	90	100	100	75	90	98	85	85	90	95	85	95	100	100	100	
CCC(=O)Oc1c(C)nn(C)c(=O)c1-c1c(C)sc2c(C)cc(C)cc12 [Compound 28]	80	40	60	95	90	90	100	100	75	90	95	85	85	90	100	85	95	98	95	95	
COc1nn(C)c(=O)c(-c2c(C)ccc3ccccc23)c1OC(=O)OC(C)C [Compound 36]	30	20	0	70	60	80	100	100	35	85	95	35	45	75	85	80	80	95	95	95	
CCC(=O)Oc1c(C)nn(C)c(=O)c1-c1c(C)sc2ccc(C)cc12 [Compound 42]	0	0	0	0		90		100	75	85	95	90	90	95	95	85	90	100	100	100	Plant response rating, Blackgrass [4, 19]: 80; Plant response rating, Galium [5, 19]: 100
CSCC(=O)Oc1c(C)nn(C)c(=O)c1-c1cccc2ccccc12 [Compound 171]	0	0	0	60																	Plant response rating, Blackgrass [4, 20]: 80; Plant response rating, Blackgrass [4, 21]: 90; Plant response rating, Galium [5, 20]: 90; Plant response rating, Galium [5, 21]: 100; Plant response rating, Chickweed ([7]; Postemergence, 31 g ai/ha, scale 0 to 100 (0 no effect, 100 complete control)): 90; Chickweed plant response rating ([7]; Postemergence, 62 g ai/ha, 0 to 100 scale (0 no effect, 100 complete control)): 90; Plant response rating, Chickweed ([7]; Postemergence, 250 g ai/ha, scale 0 to 100, 0 is no effect, 100 is complete control): 95; Chickweed plant response rating ([7]; postemergence, 125 g ai/ha, scale 0 to 100, 0 no effect, 100 complete control): 90
